This data set deals with ICR strain mice. The settings on record: mouse, in vivo, po, 300 mg/kg.

Method: Six male ICR strain mice weighing 20 g for each group were administered orally with 300 mg/kg of the test drug (all the test drugs were used in the form of the suspension in 0.5% CMC). Two hours after administration, 5 mm of the tail from the top was cut under pentobarbital anesthesia, and the bleeding was observed by tapping at the cutting site with a filter paper every 15 seconds. The time when the bleeding was observed stopping for one minute is defined as the arrest point of bleeding, and the duration required from the time when the cutting was done to the arrest point of bleeding is defined as the bleeding time. The observation was carried out up to 1200 seconds. Ticlopidine was used as a positive control.

On to `CC(C=C1C(=O)N(c2ccccc2)C1c1ccccc1)=NOCC(=O)O` (centres unmarked) [Compound 1, 3-(2-carboxymethoxyiminopropylidene)-1,4-diphenyl-2-azetidinone], for which the “Bleeding time ± standard error” value is 417.5 ± 171.22 s.
Next, `Clc1ccccc1CN1CCc2sccc2C1` [ticlopidine]: 1127.5 ± 72.50 (note) seconds.

Source of the values: patent EP0264232A1, “2-Azetidinone derivatives” (TAISHO PHARMACEUTICAL CO. LTD, priority 1986, dated 1988).
